{"source": "patent US4795751A", "about": "“5-substituted-6,8-difluoroquinolines useful as antibacterial agents” (Dainippon Pharmaceutical Co., Ltd., priority 1985, dated 1989)", "key": {"[1]": {"system": "Staphylococcus aureus 50774", "test": "In vivo efficacy against systemic infections in mice", "design": "species or system Staphylococcus aureus; male mice (ddY-S)", "details": "Staphylococcus aureus, 50774, 336 h, oral, intravenous infection 5×10^8 cells, twice, immediately and 6 h after infection, 14 days, calculated for free base, read-out: median effective dose (ED50)", "description": "(§1) Compounds were each dissolved in deionized water. Each of the solutions was orally administered to mice infected with each of the test organisms under the conditions shown hereinbelow, and the median effective dose (ED50) was calculated by probit analysis. The numerals in the table show ED50 (mg/kg) value, calculated for free base.\n(§2) Mice: Male mice (ddY-S) weighing about 20 g\nStaphylococcus aureus 50774\nIntravenous infection with 5×10^8 cells per mouse suspended in saline.\n(§3) Four times, immediately, 6, 24 and 30 hours after infection in case of Streptococcus pneumoniae 1 Neufeld. Twice, immediately and 6 hours after infection in case of other organisms.\n(§4) For 14 days in case of Staphylococcus aureus 50774 and Streptocuccus pneumoniae 1 Neufeld. For 7 days in case of other organisms."}, "[2]": {"system": "Streptococcus pneumoniae 1 Neufeld", "test": "In vivo efficacy against systemic infections in mice", "design": "species or system Streptococcus pneumoniae; male mice (ddY-S)", "details": "336 h, oral, intraperitoneal infection 3×10^3 cells, four times, immediately, 6, 24 and 30 h after infection, 14 days, calculated for free base, read-out: median effective dose (ED50)", "description": "as §1, §2\nStreptococcus pneumoniae 1 Neufeld\nIntraperitoneal infection with 3×10^3 cells per mouse suspended in brain heart infusion broth.\nas §3, §4"}, "M. arginini G-230": {"system": "M. arginini G-230", "test": "Anti-Mycoplasma activity, twofold agar-dilution method", "type": "cell-based", "details": "Mycoplasmopsis arginini, G230, 48 h, Chanock agar, 37° C., 2 days aerobically, calculated for free base, read-out: minimum inhibitory concentration (MIC)", "description": "(§5) The numbers in the table show minimum inhibitory concentrations (MIC) (μg/ml), calculated for free base. The minimum inhibitory concentration was determined by the twofold agar-dilution method using Chanock agar. Three μl of a culture of test organisms in Chanock broth was inoculated onto 10-ml drug-containing agar layers in petri dishes. Growth of Mycoplasma was observed after incubation at 37° C. under the conditions shown hereinbelow. The MIC was defined as the lowest drug concentration which prevented growth of Mycoplasma microscopically.\n(§6) Mycoplasma arginini and Acholeplasma laidlawii"}, "A. laidlawii PG-8": {"system": "A. laidlawii PG-8", "test": "Anti-Mycoplasma activity, twofold agar-dilution method", "type": "cell-based", "details": "Acholeplasma laidlawii, PG8, 48 h, Chanock agar, 37° C., 2 days aerobically, calculated for free base, read-out: minimum inhibitory concentration (MIC)", "description": "as §5, §6"}, "M. bovis P-7101": {"system": "M. bovis P-7101", "test": "microbe, parasite or virus in culture", "type": "cell-based", "details": "Mycobacterium tuberculosis variant bovis, P7101, 20 h, read-out: minimum inhibitory concentration (MIC)"}, "[3]": {"system": "Campylobacter jejuni A-19-3", "test": "Antibacterial activity against Campylobacter jejuni, twofold agar-dilution method", "type": "cell-based", "details": "A193, strain A-19-3, blood-containing Mueller-Hinton agar, 48 h, 37° C. microaerobically, calculated for free base, read-out: minimum inhibitory concentration (MIC)", "description": "(§7) The numbers in the table show minimum inhibitory concentrations (MIC) (μg/ml), calculated for free base. The minimum inhibitory concentration was determined by the twofold agar-dilution method using blood-containing Mueller-Hinton agar. One loopful of a culture of test organisms in Mueller-Hinton broth was inoculated onto 10-ml drug-containing agar layer in petri dishes. Bacterial growth was observed after 48-hour incubation at 37° C. microaerobically. The MIC was defined as the lowest drug concentration which prevented visible bacterial growth."}, "[4]": {"system": "Campylobacter jejuni 10812", "test": "Antibacterial activity against Campylobacter jejuni, twofold agar-dilution method", "type": "cell-based", "details": "strain 10812, blood-containing Mueller-Hinton agar, 48 h, 37° C. microaerobically, calculated for free base, read-out: minimum inhibitory concentration (MIC)", "description": "as §7"}, "Campylobacter jejuni 12": {"system": "Campylobacter jejuni 12", "test": "Antibacterial activity against Campylobacter jejuni, twofold agar-dilution method", "type": "cell-based", "details": "strain 12, blood-containing Mueller-Hinton agar, 48 h, 37° C. microaerobically, calculated for free base, read-out: minimum inhibitory concentration (MIC)", "description": "as §7"}, "[5]": {"system": "Campylobacter jejuni 19806", "test": "Antibacterial activity against Campylobacter jejuni, twofold agar-dilution method", "type": "cell-based", "details": "strain 19806, blood-containing Mueller-Hinton agar, 48 h, 37° C. microaerobically, calculated for free base, read-out: minimum inhibitory concentration (MIC)", "description": "as §7"}, "[6]": {"system": "Campylobacter jejuni A-24-2", "test": "Antibacterial activity against Campylobacter jejuni, twofold agar-dilution method", "type": "cell-based", "details": "A242, strain A-24-2, blood-containing Mueller-Hinton agar, 48 h, 37° C. microaerobically, calculated for free base, read-out: minimum inhibitory concentration (MIC)", "description": "as §7"}, "Campylobacter jejuni 20": {"system": "Campylobacter jejuni 20", "test": "Antibacterial activity against Campylobacter jejuni, twofold agar-dilution method", "type": "cell-based", "details": "strain 20, blood-containing Mueller-Hinton agar, 48 h, 37° C. microaerobically, calculated for free base, read-out: minimum inhibitory concentration (MIC)", "description": "as §7"}, "Campylobacter jejuni 10": {"system": "Campylobacter jejuni 10", "test": "Antibacterial activity against Campylobacter jejuni, twofold agar-dilution method", "type": "cell-based", "details": "strain 10, blood-containing Mueller-Hinton agar, 48 h, 37° C. microaerobically, calculated for free base, read-out: minimum inhibitory concentration (MIC)", "description": "as §7"}, "[7]": {"system": "Streptococcus pyogenes A65", "test": "In vivo efficacy against systemic infections in mice", "design": "species or system Streptococcus pyogenes; male mice (ddY-S)", "details": "A65, 168 h, oral, intraperitoneal infection 3×10^7 cells, twice, immediately and 6 h after infection, 7 days, calculated for free base, read-out: median effective dose (ED50)", "description": "as §1, §2\nStreptococcus pyogenes A65\nIntraperitoneal infection with 3×10^7 cells per mouse suspended in brain heart infusion broth.\nas §3, §4"}, "M. fermentans PG-18": {"system": "M. fermentans PG-18", "test": "Anti-Mycoplasma activity, twofold agar-dilution method", "type": "cell-based", "details": "Mycoplasmopsis fermentans, PG18, 48 h, Chanock agar, 37° C., 2 days anaerobically, calculated for free base, read-out: minimum inhibitory concentration (MIC)", "description": "as §5"}, "M. hominis PG-21": {"system": "M. hominis PG-21", "test": "Anti-Mycoplasma activity, twofold agar-dilution method", "type": "cell-based", "details": "Metamycoplasma hominis, PG21, 48 h, Chanock agar, 37° C., 2 days anaerobically, calculated for free base, read-out: minimum inhibitory concentration (MIC)", "description": "as §5"}, "M. buccale CH-20247": {"system": "M. buccale CH-20247", "test": "Anti-Mycoplasma activity, twofold agar-dilution method", "type": "cell-based", "details": "48 h, Chanock agar, 37° C., 2 days anaerobically, calculated for free base, read-out: minimum inhibitory concentration (MIC)", "description": "as §5"}, "M. pneumoniae Mac": {"system": "M. pneumoniae Mac", "test": "Anti-Mycoplasma activity, twofold agar-dilution method", "type": "cell-based", "details": "Mycoplasmoides pneumoniae, 168 h, Chanock agar, 37° C., 7 days aerobically, calculated for free base, read-out: minimum inhibitory concentration (MIC)", "description": "as §5"}, "M. orale CH-19299": {"system": "M. orale CH-19299", "test": "Anti-Mycoplasma activity, twofold agar-dilution method", "type": "cell-based", "details": "48 h, Chanock agar, 37° C., 2 days anaerobically, calculated for free base, read-out: minimum inhibitory concentration (MIC)", "description": "as §5"}, "M. hyorhinis BST-7": {"system": "M. hyorhinis BST-7", "test": "Anti-Mycoplasma activity, twofold agar-dilution method", "type": "cell-based", "details": "Mesomycoplasma hyorhinis, BST7, 72 h, Chanock agar, 37° C., 3 days aerobically, calculated for free base, read-out: minimum inhibitory concentration (MIC)", "description": "as §5"}, "M. salivarium": {"system": "M. salivarium", "test": "Anti-Mycoplasma activity, twofold agar-dilution method", "type": "cell-based", "details": "48 h, read-out: minimum inhibitory concentration (MIC)", "description": "as §5"}}}
{"smiles": "CC1CN(c2c(F)c(N)c3c(=O)c(C(=O)O)cn(C4CC4)c3c2F)CCN1", "note": "(centres unmarked) [Compound 1, 5-Amino-1-cyclopropyl-6,8-difluoro-7-(3-methyl-1-piperazinyl)-1,4-dihydro-4-oxoquinoline-3-carboxylic acid]", "values": [{"measurement": "ED50", "setting": "[1]", "result": 1.35, "unit": "mg/kg"}, {"measurement": "ED50", "setting": "[2]", "result": 10.9, "unit": "mg/kg"}, {"measurement": "MIC", "setting": "M. arginini G-230", "result": 0.1, "unit": "µg/mL"}, {"measurement": "MIC", "setting": "A. laidlawii PG-8", "result": 0.1, "unit": "µg/mL"}, {"measurement": "MIC", "setting": "M. bovis P-7101", "result": 0.2, "unit": "µg/mL"}, {"measurement": "MIC", "setting": "[3]", "result": 0.05, "unit": "µg/mL"}, {"measurement": "MIC", "setting": "[4]", "result": 0.025, "unit": "µg/mL"}, {"measurement": "MIC", "setting": "Campylobacter jejuni 12", "result": 0.0125, "unit": "µg/mL"}, {"measurement": "MIC", "setting": "[5]", "result": 0.0125, "unit": "µg/mL"}, {"measurement": "MIC", "setting": "[6]", "result": 0.05, "unit": "µg/mL"}, {"measurement": "MIC", "setting": "Campylobacter jejuni 20", "result": 0.0063, "unit": "µg/mL"}, {"measurement": "MIC", "setting": "Campylobacter jejuni 10", "result": 0.0125, "unit": "µg/mL"}, {"measurement": "ED50", "setting": "[7]", "result": 5.26, "unit": "mg/kg"}, {"measurement": "MIC", "setting": "M. fermentans PG-18", "result": 0.0063, "unit": "µg/mL"}, {"measurement": "MIC", "setting": "M. hominis PG-21", "result": 0.05, "unit": "µg/mL"}, {"measurement": "MIC", "setting": "M. buccale CH-20247", "result": 0.0125, "unit": "µg/mL"}, {"measurement": "MIC", "setting": "M. pneumoniae Mac", "result": 0.025, "unit": "µg/mL"}, {"measurement": "MIC", "setting": "M. orale CH-19299", "result": 0.2, "unit": "µg/mL"}, {"measurement": "MIC", "setting": "M. hyorhinis BST-7", "result": 0.2, "unit": "µg/mL"}, {"measurement": "MIC", "setting": "M. salivarium", "result": 0.2, "unit": "µg/mL"}]}
